We go through five compounds from patent US20230413824A1, “AGROCHEMICAL COMPOSITION COMPRISING 3-SUBSTITUTED PHENYLAMIDINE COMPOUNDS AND USE THEREOF” (PI INDUSTRIES LIMITED, priority 2020, published 2023).

What all share (assay type): in vivo
For assay [1], the system named is Pyricularia oryzae. As to the kind of experiment: whole plant or invertebrate. To be noted: for Observed Efficacy: single compound, preventive spray, rice.
Assay [2] deals with Alternaria solani. Nature of the assay: Alternaria solani test in tomato (preventive, glasshouse).
Assay [3] deals with Erysiphe cichoracearum. Nature of the assay: Erysiphe cichoracearum test in cucumber (preventive, glasshouse). The note with it: single compound.
For assay [4], the system named is Phakopsora pachyrhizi. As to the kind of experiment: Phakopsora pachyrhizi test in soybean (preventive, glasshouse). The note with it: single compound.
In assay [5] the test system is Septoria nodorum. As to the kind of experiment: Parastagonospora nodorum/Septoria nodorum/Stagnospora nodorum test in wheat (preventive, glasshouse). The note with it: single compound. The procedure: The single compounds or compound combinations were dissolved in 2% DMSO/Acetone and then mixed with water containing emulsifier to a calibrated spray volume of 50 mL. The spray solutions were poured into spray bottles for further applications.
To test the preventive activity of compounds, healthy young wheat plants, raised in the greenhouse, were sprayed with the single compound or mixture preparation at the stated application rates inside the spray cabinets using hollow cone nozzles. One day after treatment, the plants were inoculated with a suspension containing 2.8×10^6 Stagnospora nodorum inoculum. The inoculated plants were then kept in a greenhouse chamber at 22-25° C. temperature and 90-100% relative humidity for disease expression.
A visual assessment of the performance of the compounds and respective compound combinations was carried out by rating the disease severity (0-100% scale) on treated plants 3, 7 and 10 days after application. Efficacy (% control) of the compounds was calculated by comparing the disease rating in the treatment with the one of the untreated control. The compounds were also assessed for their plant compatibility by recording symptoms like necrosis, chlorosis & stunting. The results are shown for the compound of formula (I-1) to (I-5) in Table E1-E5.

In assay [6] the test system is Botrytis cinerea. As to the kind of experiment: Botrytis cinerea test in tomato (preventive, glasshouse). The note with it: single compound.
[7] abbreviates: Pyricularia oryzae, read-out: Observed Efficacy.
[8] abbreviates: Table B3, single compound, Conc. 0.1 ppm, preventive.
Where [9] appears, read: Table B4, single compound, Conc. 0.05 ppm, preventive.
Where [10] appears, read: Table B4, single compound, Conc. 0.1 ppm, preventive.
Setting [11] is: single compound, 0.05 ppm, preventive.
[12] abbreviates: single compound, 0.1 ppm, preventive.
The mark [13] stands for this setting: 0.05 ppm, preventive spray on cucumber.
Where [14] appears, read: Conc. 0.05 ppm, soybean, preventive, Table D5.
[15] abbreviates: Table B3, single compound, Conc. 0.05 ppm, preventive.
Where [16] appears, read: single compound, 0.05 ppm, preventive spray.
Setting [17] is: single compound, 0.1 ppm, preventive spray.
Setting [18] is: 0.1 ppm, preventive spray on cucumber.
Where [19] appears, read: 0.05 ppm, preventive spray on soybean.
Where [20] appears, read: 0.1 ppm, preventive spray on soybean.
Setting [21] is: Conc. 0.05 ppm, soybean, preventive, Table D4.
The mark [22] stands for this setting: Conc. 0.1 ppm, soybean, preventive, Table D4.
[23] abbreviates: Conc. 0.1 ppm, soybean, preventive, Table D5.
The mark [24] stands for this setting: Conc. 0.1 ppm, preventive spray on tomato, % control vs untreated.

Where two headings read alike, the source gives them in different places.

Regarding `CNC(=O)/C(=N/OC)c1ccccc1Oc1ccccc1` [Metominostrobin, metominostrobin], the pest or weed control at 0.05 ppm in assay [1] (setting [7]) came to 17%; in assay [2] (Alternaria solani, single compound, 0.05 ppm, preventive spray, read-out: Observed Efficacy (%)) it was 26%; in assay [2] (Alternaria solani, single compound, Conc. 0.05 ppm, preventive spray, read-out: Observed Efficacy), 26%; in assay [3] (Golovinomyces cichoracearum, 0.05 ppm, cucumber, preventive, read-out: Observed Efficacy (%)), 14%; in assay [4] (Phakopsora pachyrhizi, Conc. 0.05 ppm, soybean, preventive, Table D4, read-out: Observed Efficacy (%)) it was 45%; in assay [5] (Parastagonospora nodorum, 0.05 ppm, read-out: Observed Efficacy (%)), 6%. Moreover, the pest or weed control at 0.1 ppm in assay [1] (setting [7]) stood at 33%; in assay [2] (Alternaria solani, single compound, 0.1 ppm, preventive spray, read-out: Observed Efficacy (%)), 31%; in assay [2] (Alternaria solani, single compound, Conc. 0.1 ppm, preventive spray, read-out: Observed Efficacy), 31%; in assay [3] (Golovinomyces cichoracearum, 0.1 ppm, cucumber, preventive, read-out: Observed Efficacy (%)), 57%; in assay [4] (Phakopsora pachyrhizi, Conc. 0.1 ppm, soybean, preventive, Table D5, read-out: Observed Efficacy (%)) it was 56%; in assay [5] (Parastagonospora nodorum, 0.1 ppm, read-out: Observed Efficacy (%)), 12%. For the same compound, the pest or weed control at 0.1 ppm in assay [6] (Table F5, Conc. 0.1 ppm, Botrytis cinerea in tomato, preventive, read-out: Observed Efficacy (%)) is 40%. Also, the “Observed Efficacy (%)” value in assay [2] (setting [8]) is recorded as 31%; in assay [2] (setting [9]) it was 26%; in assay [2] (setting [10]), 31%; in assay [2] (setting [11]), 26%; in assay [2] (setting [12]), 31%; in assay [3] (setting [13]), 14%. Also, the “Observed Efficacy (%)” value in assay [4] (setting [14]) is 45%.
Take `CO/C=C(/C(=O)OC)c1ccccc1Oc1cc(Oc2ccccc2C#N)ncn1` [Azoxystrobin, azoxystrobin]: the “Observed Efficacy” value stood at 21% in assay [1] (Conc. 0.05 ppm); 26% in assay [1] (Conc. 0.1 ppm); 33% in assay [2] (single compound, Conc. 0.05 ppm, preventive spray); 49% in assay [2] (single compound, Conc. 0.1 ppm, preventive spray). In addition, the “Observed Efficacy (%)” value worked out at 33% in assay [2] (setting [15]); 49% in assay [2] (setting [8]); 33% in assay [2] (setting [11]); 33% in assay [2] (setting [16]); 49% in assay [2] (setting [12]); 49% in assay [2] (setting [17]). Further, the “Observed Efficacy (%)” value in assay [3] (0.1 ppm, cucumber, preventive) is on record as 50%; in assay [3] (setting [18]), 50%; in assay [4] (setting [19]) it was 15%; in assay [4] (setting [20]), 22%; in assay [4] (setting [21]) it was 15%; in assay [4] (setting [14]) it was 15%. The “Observed Efficacy (%)” value in assay [4] (setting [22]) was found to be 22%; in assay [4] (setting [23]), 22%; in assay [5] (0.05 ppm), 42%; in assay [5] (0.1 ppm), 47%; in assay [6] (setting [24]) it was 45%.
For `CO/C=C(/C(=O)OC)c1ccccc1COc1cccc(C(F)(F)F)n1` [Picoxystrobin, picoxystrobin], the “Observed Efficacy” value in assay [1] (Conc. 0.05 ppm) is recorded as 16%; in assay [1] (Conc. 0.1 ppm), 33%. Besides, the “Observed Efficacy (%)” value was 23% in assay [2] (setting [15]); 26% in assay [2] (setting [8]); 23% in assay [2] (setting [11]); 23% in assay [2] (setting [16]); 26% in assay [2] (setting [12]); 26% in assay [2] (setting [17]). For the same compound, the “Observed Efficacy (%)” value in assay [3] (0.05 ppm, cucumber, preventive) is recorded as 19%; in assay [3] (setting [13]), 19%; in assay [3] (0.1 ppm, cucumber, preventive) it was 43%; in assay [3] (setting [18]), 43%; in assay [4] (setting [19]) it was 20%; in assay [4] (setting [20]), 28%. The “Observed Efficacy (%)” value is 20% in assay [4] (setting [21]); 20% in assay [4] (setting [14]); 28% in assay [4] (setting [22]); 28% in assay [4] (setting [23]); 12% in assay [5] (0.05 ppm); 26% in assay [5] (0.1 ppm). Further, the “Observed Efficacy (%)” value in assay [6] (setting [24]) turned out to be 38%.
Take `Cn1cc(C(=O)Nc2cccc3c2[C@@H]2CC[C@H]3C2=C(Cl)Cl)c(C(F)F)n1` (racemic) [Benzovindiflupyr, benzovindiflupyr]: the “Observed Efficacy” value in assay [1] (Conc. 0.05 ppm) worked out at 17%. Besides, the “Observed Efficacy (%)” value in assay [2] (setting [15]) is given as 14%; in assay [2] (setting [8]) it was 29%; in assay [2] (setting [9]), 14%; in assay [2] (setting [10]), 29%; in assay [2] (setting [11]), 14%; in assay [2] (setting [16]), 14%. Besides, the “Observed Efficacy (%)” value in assay [2] (setting [12]) is on record as 29%; in assay [2] (setting [17]), 29%; in assay [3] (0.05 ppm, cucumber, preventive), 24%; in assay [3] (setting [13]), 24%; in assay [3] (0.1 ppm, cucumber, preventive), 29%; in assay [3] (setting [18]) it was 29%. In addition, the “Observed Efficacy (%)” value in assay [4] (setting [19]) stood at 27%; in assay [4] (setting [20]), 38%; in assay [4] (setting [21]), 27%; in assay [4] (setting [14]), 27%; in assay [4] (setting [22]), 38%; in assay [4] (setting [23]), 38%. In addition, the “Observed Efficacy (%)” value was 29% in assay [5] (0.05 ppm); 33% in assay [6] (Table F4, Conc. 0.05 ppm, Botrytis cinerea in tomato, preventive); 42% in assay [6] (Table F4, Conc. 0.1 ppm, Botrytis cinerea in tomato, preventive); 42% in assay [6] (Table F5, Conc. 0.1 ppm, Botrytis cinerea in tomato, preventive); 33% in assay [6] (Conc. 0.05 ppm, preventive spray on tomato, % control vs untreated); 42% in assay [6] (setting [24]).
As to `CCN(C)C=Nc1cc(Cl)cc(Cc2cccc(C)c2)c1C` [Compound (I-1), N′-(5-chloro-2-methyl-3-(3-methylbenzyl)phenyl)-N-ethyl-N-methylformimidamide], the pest or weed control at 1 ppm in assay [1] (setting [7]) turned out to be 17%; in assay [2] (Alternaria solani, single compound, Conc. 1 ppm, preventive spray, read-out: Observed Efficacy), 20%; in assay [3] (Golovinomyces cichoracearum, 1 ppm, cucumber, preventive, read-out: Observed Efficacy (%)), 13%; in assay [5] (Parastagonospora nodorum, 1 ppm, read-out: Observed Efficacy (%)) it was 17%; in assay [6] (Botrytis cinerea, Conc. 1 ppm, preventive spray on tomato, % control vs untreated, read-out: Observed Efficacy (%)), 20%. The pest or weed control at 5 ppm in assay [1] (setting [7]) was determined as 27%; in assay [2] (Alternaria solani, single compound, Conc. 5 ppm, preventive spray, read-out: Observed Efficacy) it was 27%; in assay [3] (Golovinomyces cichoracearum, 5 ppm, cucumber, preventive, read-out: Observed Efficacy (%)) it was 33%; in assay [5] (Parastagonospora nodorum, 5 ppm, read-out: Observed Efficacy (%)), 20%; in assay [6] (Botrytis cinerea, Conc. 5 ppm, preventive spray on tomato, % control vs untreated, read-out: Observed Efficacy (%)), 27%. Further, the pest or weed control at 20 ppm turned out to be 37% in assay [1] (setting [7]); 40% in assay [2] (Alternaria solani, single compound, Conc. 20 ppm, preventive spray, read-out: Observed Efficacy); 57% in assay [3] (Golovinomyces cichoracearum, 20 ppm, cucumber, preventive, read-out: Observed Efficacy (%)); 43% in assay [5] (Parastagonospora nodorum, 20 ppm, read-out: Observed Efficacy (%)); 47% in assay [6] (Botrytis cinerea, Conc. 20 ppm, preventive spray on tomato, % control vs untreated, read-out: Observed Efficacy (%)). Also, the pest or weed control at 0.0001 ppm in assay [4] (Phakopsora pachyrhizi, 0.0001 ppm, preventive spray on soybean, read-out: Observed Efficacy (%)) was found to be 40%. In addition, the pest or weed control at 0.001 ppm in assay [4] (Phakopsora pachyrhizi, 0.001 ppm, preventive spray on soybean, read-out: Observed Efficacy (%)) was found to be 50%. The pest or weed control at 0.01 ppm in assay [4] (Phakopsora pachyrhizi, 0.01 ppm, preventive spray on soybean, read-out: Observed Efficacy (%)) was 62%.
